# From patent publication US4180505A, “Novel steroidspirooxazolidines and process for their preparation” (Richter Gedeon Vegyeszet, Gyar RT, priority 1977, dated 1979)
# How the values were obtained:
# [1] = tested on: aldosterone; test: Aldosterone antagonist effect in adrenalectomized DOCA-treated rats, urinary Na+/K+ (method of C. M. Kagawa); format: in vivo; conditions: for Activity related to Spironolactone: Spironolactone = 1.0
# Procedure: M. Kagawa [C. M. Kagawa et al., J. Pharmacol. Exp. Ther. 126, 123 (1959)].
# 18 hours after the removal of their suprarenal glands, desoxycorticosterone acetate (DOCA) was administered to groups of rats which were simultaneously treated with the test and, respectively, the reference compounds. The reference compound, i.e. Spironolactone (17α-carboxyethyl-17β-hydroxy-7α-acetylthioandrost-4-en-3-one-lactone), was administered orally in a dose of 480 μg./animal. The Na^+ and K^+ concentrations in the urine of the treated animals were determined by flame photometry. Evaluation was made on the basis of the Na^+ /K^+ proportions.
# [2] = tested on: vesicula seminalis gland (weight increase induced by testosterone propionate); test: Antiandrogenic activity in castrated testosterone propionate-treated male mice, vesicula seminalis weight (modified method of Dorfman); format: in vivo
# Procedure: The antiandrogenic activity of the compounds according to the invention--anundesirable side-effect exerted by spironolactone during protracted treating--was tested by the modified method of Dorfman (R. Dorfman: Steroids 2, 185 (1963).
# Castrated male mice weighing 25 to 30 g. each were treated with testosterone propionate (T.P.) in every second day. The total dose amounted to 300 μg./2 weeks/animal. The test compounds were administered parallel with the T. […] The antiandrogenic activity of a given test compound was expressed in %. If the increase in weight of the vesicula seminalis gland induced by T.P. is 100%, subtracting the weight-increase induced by the combination of T.P. and the test compound from 100, the percentage inhibition is obtained.
# Each group of test amimals consisted of from 8 to 10 mice.
# [3] = Rattus norvegicus, po, 480 μg/animal p.o., read-out: DOCA blocking activity
# [4] = Rattus norvegicus, po, 960 μg/animal p.o., read-out: DOCA blocking activity
# [5] = 5.0 mg/2 weeks/animal s.c., with testosterone propionate
# [6] = 10.0 mg/2 weeks/animal s.c., with testosterone propionate
Compound,"log (Na × 10 / K), X ± S ([1]; 480 μg/animal p.o., with DOCA)",Activity related to Spironolactone ([1]; 480 μg/animal p.o.),"log (Na × 10 / K), X ± S ([1]; 960 μg/animal p.o., with DOCA)","inhibition in vivo at 0.48 mg [1, 3] [%]","inhibition in vivo at 0.96 mg [1, 4] [%]","+ Stimulation, % / - Inhibition, % [2, 5]","Increase in weight of vesicula seminalis [2, 5] [%]",other results
CC[C@]12CC[C@H]3[C@@H](CCC4=CC(=O)CC[C@@H]43)[C@@H]1CC[C@@]21CN(C)C(=O)O1 [13β-Ethyl-4-en-3-one-17S-spiro-5'-(2'-oxo-3'-methyloxazolidine)],1.13,0.93,1.16,45,49,,,"log (Na × 10 / K), X ± S ([1]; 1920 μg/animal p.o., with DOCA): 1.30; inhibition in vivo at 1.92 mg ([1]; Rattus norvegicus, po, 1920 μg/animal p.o., read-out: DOCA blocking activity): 67%"
CC[C@]12CC[C@@H]3C4=C(CC[C@H]3[C@@H]1CC[C@@]21CN(C)C(=O)O1)CC(=O)CC4 [13β-Ethylgon-5(10)-en-3-one-17S-spiro-5'-(2'-oxo-3'-methyloxazolidine)],1.02,0.84,1.34,31,71,+14.0%,114.0,
"C/C=C\N1C[C@@]2(CC[C@H]3[C@@H]4CCC5=C(CC=C(OC)C5)[C@H]4CC[C@@]32CC)OC1=O [13β-Ethyl-3-methoxygona-2,5(10)-diene-17S-spiro-5'-(2'-oxo-3'-(1""-cis-propenyl)-oxazolidine)]",1.16,0.96,1.22,49,56,+12.5%,112.5,
CC[C@]12CC[C@H]3[C@@H](CCC4=CC(=NOC)CC[C@@H]43)[C@@H]1CC[C@@]21CN(C)C(=O)O1 [13β-Ethyl-3-methoxyiminogon-4-ene-17S-spiro-5'-(2'-oxo-3'-methyloxazolidine)],1.19,0.98,0.97,53,24,+15.0%,115.0,
"CCC(=O)O[C@H]1CC[C@H]2[C@@H]3CCC4=CC(=O)CC[C@]4(C)[C@H]3CC[C@]12C [Testosterone propionate, testosterone propionate, reference compound]",,,,,,,,"Increase in weight of vesicula seminalis ([2]; testosterone propionate, 0.3 mg/2 weeks/animal): 100%"
"CC(=O)OCC(=O)[C@H]1CC[C@H]2[C@@H]3CCC4=CC(=O)CC[C@]4(C)[C@H]3CC[C@]12C [DOCA, Pregn-4-ene-3,20-dion-21-ol-acetate, reference compound]",,,,,,,,"log (Na × 10 / K), X ± S ([1]; DOCA, 12.5 μg/animal s.c.): 0.78"
"CN1C[C@@]2(CC[C@H]3[C@@H]4C=C[C@]56C[C@@H](O)CC[C@]5(C6)[C@H]4CC[C@@]32C)OC1=O [3β-Hydroxy-5β,19-cycloandrost-6-ene-17S-spiro-5'-(2'-oxo-3'-methyloxazolidine)]",1.18,0.98,1.23,51,58,,,
CN1C[C@@]2(CC[C@H]3[C@@H]4CCC5=CC(=O)CC[C@@H]5[C@H]4CC[C@@]32C)OC1=O [Oestr. 4-en-3-one-17S-spiro-5'-(2'-oxo-3'-methyloxazolidine)],1.26,1.04,1.12,61,44,+13.0%,113.0,
"CC[C@]12C=CC3=C4CCC(=O)C=C4CC[C@H]3[C@@H]1CC[C@@]21CN(C)C(=O)O1 [13β-Ethylgona-4,9(10),11-trien-3-one-17S-spiro-5'-(2'-oxo-3'-methyloxazolidine)]",,,,,,,,"antialdosterone activity ([1]; compared with the compounds listed in Table I, result in words): negligible; inhibition against testosterone propionate (antiandrogenic activity) ([2]; 300 μg/2 weeks/animal, against 300 μg/2 weeks/animal T.P.): 70%"
"CN1C[C@@]2(CC[C@H]3[C@@H]4C=CC5=CC(=O)CC[C@]5(C)[C@H]4CC[C@@]32C)OC1=O [Androst-4,6-dien-3-one-17S-spiro-5'-(2'-oxo-3'-methyloxazolidine)]",1.14,0.94,1.74,46,123,-1.4%,98.6,
CN1C[C@@]2(CC[C@H]3[C@@H]4CC=C5C[C@@H](F)CC[C@]5(C)[C@H]4CC[C@@]32C)OC1=O [3β-Fluoroandrost-5-ene-17S-spiro-5'-(2'-oxo-3'-methyloxazolidine)],0.98,0.80,1.13,26,45,,,
"CC(=O)S[C@@H]1CC2=CC(=O)CC[C@]2(C)[C@H]2CC[C@@]3(C)[C@@H](CC[C@@]34CCC(=O)O4)[C@H]12 [Spironolactone, 17α-carboxyethyl-17β-hydroxy-7α-acetylthioandrost-4-en-3-one-lactone, reference compound]",1.21,1.0,,54,,-32.5%,67.5,"inhibition (antiandrogenic activity) ([2]; 5.0 mg/2 weeks/animal s.c.): 32.5%; inhibition (antiandrogenic activity) ([2]; 10.0 mg/2 weeks/animal s.c.): 50.6%; + Stimulation, % / - Inhibition, % [2, 6]: -50.6%; Increase in weight of vesicula seminalis [2, 6]: 49.4%"
